Measured values published in ChEMBL document CHEMBL1817634, “One-pot synthesis of pyrazoline derivatised carbazoles as antitubercular, anticancer agents, their DNA cleavage and antioxidant activities” (2011).
≈ marks a conversion by molar mass, not a printed value. Calls of active or inactive are those of the source. No cut-off for these calls is given here.

Experiments:
A498 [1] = experiment: Cytotoxicity against human A498 cells; type: functional
A549 [2] = experiment: Anticancer activity against human A549 cells assessed as cell growth at 40 ug/mL by sulforhodamine B assay; type: functional; settings: read-out: Activity
[3] = Antioxidant activity assessed as potassium ferric cyanide reducing power at 100 ug after 20 mins by spectrophotometry; type: functional
A498 [4] = experiment: Anticancer activity against human A498 cells assessed as cell growth at 10 ug/mL by sulforhodamine B assay; type: functional; settings: read-out: Activity
A549 [5] = experiment: Cytotoxicity against human A549 cells; type: functional
A549 [6] = experiment: Anticancer activity against human A549 cells assessed as cell growth at 20 ug/mL by sulforhodamine B assay; type: functional; settings: read-out: Activity
[7] = Antioxidant activity assessed as potassium ferric cyanide reducing power at 50 ug after 20 mins by spectrophotometry; type: functional
A498 [8] = experiment: Anticancer activity against human A498 cells assessed as cell growth at 20 ug/mL by sulforhodamine B assay; type: functional; settings: read-out: Activity
Nucleic Acid = experiment: Induction of Escherichia coli DNA cleavage at 100 ug after 2 hrs by agarose gel electrophoresis; type: nucleic-acid assay
A498 [9] = experiment: Anticancer activity against human A498 cells assessed as cell growth at 80 ug/mL by sulforhodamine B assay; type: functional; settings: read-out: Activity
A498 [10] = experiment: Anticancer activity against human A498 cells assessed as cell growth at 40 ug/mL by sulforhodamine B assay; type: functional; settings: read-out: Activity
[11] = test system: Mycobacterium tuberculosis; experiment: Antitubercular activity against Mycobacterium tuberculosis H37Rv after 3 weeks by turbidity assay; type: functional; settings: 504 h
A549 [12] = experiment: Anticancer activity against human A549 cells assessed as cell growth at 10 ug/mL by sulforhodamine B assay; type: functional; settings: read-out: Activity
[13] = Antioxidant activity assessed as potassium ferric cyanide reducing power at 10 ug after 20 mins by spectrophotometry; type: functional
A549 [14] = experiment: Anticancer activity against human A549 cells assessed as cell growth at 80 ug/mL by sulforhodamine B assay; type: functional; settings: read-out: Activity

Oc1ccccc1C1CC(c2ccc3[nH]c4c(c3c2)CCCC4)=NN1 (stereo not drawn)
GI50 (A498 [1]): 62.3 µg/mL (≈ 188 µM)
LC50 (A498 [1]): > 80 µg/mL
TGI (A498 [1]): > 80 µg/mL
growth at 40 µg/mL (A549 [2]): -18.5%
reducing power [3]: 0.246 absorbance
growth at 10 µg/mL (A498 [4]): 99.3%
GI50 (A549 [5]): 75.7 µg/mL (≈ 228 µM)
LC50 (A549 [5]): > 70 µg/mL
TGI (A549 [5]): > 70 µg/mL
growth at 20 µg/mL (A549 [6]): -2.9%
reducing power [7]: 0.137 absorbance
growth at 20 µg/mL (A498 [8]): 99.5%
Activity (Nucleic Acid): inactive
growth at 80 µg/mL (A498 [9]): 16.5%
growth at 40 µg/mL (A498 [10]): 97.7%
MIC [11]: 4.5 µg/mL (≈ 13.6 µM)
growth at 10 µg/mL (A549 [12]): 11.9%
reducing power [13]: 0.118 absorbance
growth at 80 µg/mL (A549 [14]): -28.4%

Clc1ccccc1C1CC(c2ccc3[nH]c4c(c3c2)CCCC4)=NN1 (stereo not drawn)
GI50 (A498 [1]): 62 µg/mL (≈ 177 µM)
LC50 (A498 [1]): > 80 µg/mL
TGI (A498 [1]): > 80 µg/mL
growth at 40 µg/mL (A549 [2]): 75.7%
reducing power [3]: 0.295 absorbance
growth at 10 µg/mL (A498 [4]): 100%
GI50 (A549 [5]): 51.6 µg/mL (≈ 147 µM)
LC50 (A549 [5]): > 80 µg/mL
TGI (A549 [5]): > 80 µg/mL
growth at 20 µg/mL (A549 [6]): 81.6%
reducing power [7]: 0.121 absorbance
growth at 20 µg/mL (A498 [8]): 100%
Activity (Nucleic Acid): inactive
growth at 80 µg/mL (A498 [9]): 16.2%
growth at 40 µg/mL (A498 [10]): 97.4%
MIC [11]: 5 µg/mL (≈ 14.3 µM)
growth at 10 µg/mL (A549 [12]): 90.2%
reducing power [13]: 0.004 absorbance
growth at 80 µg/mL (A549 [14]): 12.1%

COc1ccc(C2CC(c3ccc4[nH]c5c(c4c3)CCCC5)=NN2)cc1 (stereo not drawn)
GI50 (A498 [1]): 55 µg/mL (≈ 159 µM)
LC50 (A498 [1]): > 80 µg/mL
TGI (A498 [1]): > 80 µg/mL
growth at 40 µg/mL (A549 [2]): 69.4%
reducing power [3]: 0.673 absorbance
growth at 10 µg/mL (A498 [4]): 98.3%
GI50 (A549 [5]): 56.2 µg/mL (≈ 163 µM)
LC50 (A549 [5]): > 80 µg/mL
TGI (A549 [5]): > 80 µg/mL
growth at 20 µg/mL (A549 [6]): 76.2%
reducing power [7]: 0.473 absorbance
growth at 20 µg/mL (A498 [8]): 100%
Activity (Nucleic Acid): inactive
growth at 80 µg/mL (A498 [9]): 4.2%
growth at 40 µg/mL (A498 [10]): 97.7%
MIC [11]: 10 µg/mL (≈ 28.9 µM)
growth at 10 µg/mL (A549 [12]): 81.6%
reducing power [13]: 0.193 absorbance
growth at 80 µg/mL (A549 [14]): 15.3%

Clc1ccc(C2CC(c3ccc4[nH]c5c(c4c3)CCCC5)=NN2)cc1 (stereo not drawn)
GI50 (A498 [1]): 72.7 µg/mL (≈ 208 µM)
LC50 (A498 [1]): > 80 µg/mL
TGI (A498 [1]): > 80 µg/mL
growth at 40 µg/mL (A549 [2]): 67.1%
reducing power [3]: 0.303 absorbance
growth at 10 µg/mL (A498 [4]): 100%
GI50 (A549 [5]): 47.6 µg/mL (≈ 136 µM)
LC50 (A549 [5]): > 80 µg/mL
TGI (A549 [5]): > 80 µg/mL
growth at 20 µg/mL (A549 [6]): 74.6%
reducing power [7]: 0.191 absorbance
growth at 20 µg/mL (A498 [8]): 100%
Activity (Nucleic Acid): Active
growth at 80 µg/mL (A498 [9]): 31.7%
growth at 40 µg/mL (A498 [10]): 97.5%
MIC [11]: 3.5 µg/mL (≈ 10 µM)
growth at 10 µg/mL (A549 [12]): 83.2%
reducing power [13]: 0.011 absorbance
growth at 80 µg/mL (A549 [14]): 11.5%

O=[N+]([O-])c1ccc(C2CC(c3ccc4[nH]c5c(c4c3)CCCC5)=NN2)cc1 (stereo not drawn)
GI50 (A498 [1]): 56.2 µg/mL (≈ 156 µM)
LC50 (A498 [1]): > 80 µg/mL
TGI (A498 [1]): > 80 µg/mL
growth at 40 µg/mL (A549 [2]): 50.4%
reducing power [3]: 0.675 absorbance
growth at 10 µg/mL (A498 [4]): 100%
GI50 (A549 [5]): 38.2 µg/mL (≈ 106 µM)
LC50 (A549 [5]): > 80 µg/mL
TGI (A549 [5]): > 80 µg/mL
growth at 20 µg/mL (A549 [6]): 64.4%
reducing power [7]: 0.475 absorbance
growth at 20 µg/mL (A498 [8]): 100%
Activity (Nucleic Acid): Active
growth at 80 µg/mL (A498 [9]): 4.1%
growth at 40 µg/mL (A498 [10]): 97.7%
MIC [11]: 10 µg/mL (≈ 27.7 µM)
growth at 10 µg/mL (A549 [12]): 70.1%
reducing power [13]: 0.195 absorbance
growth at 80 µg/mL (A549 [14]): 4.2%

Cc1ccc(C2CC(c3ccc4[nH]c5c(c4c3)CCCC5)=NN2)cc1 (stereo not drawn)
GI50 (A498 [1]): 54 µg/mL (≈ 164 µM)
LC50 (A498 [1]): > 80 µg/mL
TGI (A498 [1]): > 80 µg/mL
growth at 40 µg/mL (A549 [2]): -18.5%
reducing power [3]: 0.17 absorbance
growth at 10 µg/mL (A498 [4]): 99.3%
GI50 (A549 [5]): 74.3 µg/mL (≈ 226 µM)
LC50 (A549 [5]): > 80 µg/mL
TGI (A549 [5]): > 80 µg/mL
growth at 20 µg/mL (A549 [6]): -2.9%
reducing power [7]: 0.11 absorbance
growth at 20 µg/mL (A498 [8]): 99.2%
Activity (Nucleic Acid): inactive
growth at 80 µg/mL (A498 [9]): 4.6%
growth at 40 µg/mL (A498 [10]): 96.2%
MIC [11]: 12 µg/mL (≈ 36.4 µM)
growth at 10 µg/mL (A549 [12]): 11.9%
reducing power [13]: 0.05 absorbance
growth at 80 µg/mL (A549 [14]): -28.4%

Clc1cccc(C2CC(c3ccc4[nH]c5c(c4c3)CCCC5)=NN2)c1 (stereo not drawn)
GI50 (A498 [1]): 74.3 µg/mL (≈ 212 µM)
LC50 (A498 [1]): > 80 µg/mL
TGI (A498 [1]): > 80 µg/mL
growth at 40 µg/mL (A549 [2]): 69.4%
reducing power [3]: 0.147 absorbance
growth at 10 µg/mL (A498 [4]): 100%
GI50 (A549 [5]): 49.8 µg/mL (≈ 142 µM)
LC50 (A549 [5]): > 80 µg/mL
TGI (A549 [5]): > 80 µg/mL
growth at 20 µg/mL (A549 [6]): 76.2%
reducing power [7]: 0.066 absorbance
growth at 20 µg/mL (A498 [8]): 100%
Activity (Nucleic Acid): inactive
growth at 80 µg/mL (A498 [9]): 33.5%
growth at 40 µg/mL (A498 [10]): 97.9%
MIC [11]: 4.5 µg/mL (≈ 12.9 µM)
growth at 10 µg/mL (A549 [12]): 81.6%
reducing power [13]: 0.015 absorbance
growth at 80 µg/mL (A549 [14]): 15.3%
